# Read-outs that look alike come from different tables or passages of the source.
# Key:
# purified recombinant Bax = experiment: Cell-free Bax activation, IP with 6A7 Bax antibody; assay type: biochemical; settings: for direct Bax activation: Bax without Bcl2
# [1] = cited from earlier work
# [2] = target: Purified recombinant Bcl2 protein (Homo sapiens, UniProt P10415); experiment: Cell-free Bcl2 conformational change, IP with anti-Bcl2/BH3 domain antibody; assay type: biochemical; settings: cell-free system
# [3] = system: H460 or DMS53 cells expressing Bcl2 shRNA1; experiment: Rescue of Bcl2-silenced cells with exogenous WT or AAAA Bcl2; assay type: cell-based, human
# H460 cells [4] = experiment: SRB growth assay, single agents and combination; assay type: cell-based, human
# A549 cells = experiment: Bcl2 expression by Western blot after mTOR inhibition; assay type: cell-based, human; settings: increasing concentrations, 24 hr
# H460 cells [5] = experiment: as above; assay type: cell-based, human; settings: increasing concentrations, 24 hr
# Bcl2 = Bcl2 expression by IHC in tumor tissues of NSCLC patients; assay type: in vivo, human; settings: 5 or 10mg/day orally, 28 days, 10 NSCLC patients
# [6] = system: H460 lung cancer xenografts; experiment: H460 lung cancer xenografts
# Bcl2 (WT) = Bcl2 (WT) (Homo sapiens, UniProt P10415); experiment: Competitive fluorescence polarization assay with fluorescent Bak peptide; assay type: binding
# D10A Bcl2 mutant = D10A Bcl2 mutant (Homo sapiens, UniProt P10415, D10A); experiment: Competitive fluorescence polarization assay; assay type: binding
# N11A Bcl2 mutant = N11A Bcl2 mutant (Homo sapiens, UniProt P10415, N11A); experiment: Competitive fluorescence polarization assay; assay type: binding
# R12A Bcl2 mutant = R12A Bcl2 mutant (Homo sapiens, UniProt P10415, R12A); experiment: Competitive fluorescence polarization assay; assay type: binding
# E13A Bcl2 mutant = E13A Bcl2 mutant (Homo sapiens, UniProt P10415, E13A); experiment: Competitive fluorescence polarization assay; assay type: binding
# M16A Bcl2 mutant = M16A Bcl2 mutant (Homo sapiens, UniProt P10415, M16A); experiment: Competitive fluorescence polarization assay; assay type: binding
# K17A Bcl2 mutant = K17A Bcl2 mutant (Homo sapiens, UniProt P10415, K17A); experiment: Competitive fluorescence polarization assay; assay type: binding
# H20A Bcl2 mutant = H20A Bcl2 mutant (Homo sapiens, UniProt P10415, H20A); experiment: Competitive fluorescence polarization assay; assay type: binding
# D31A Bcl2 mutant = D31A Bcl2 mutant (Homo sapiens, UniProt P10415, D31A); experiment: Competitive fluorescence polarization assay; assay type: binding
# [7] = target: D10A/N11A/R12A/E13A (AAAA) Bcl2 mutant (Homo sapiens, UniProt P10415, D10A/E13A/N11A/R12A); experiment: Competitive fluorescence polarization assay; assay type: binding
# Bcl2 ΔBH1 = experiment: Fluorescence polarization assay; assay type: binding; settings: deletion of BH1
# Bcl2 ΔBH2 = experiment: Fluorescence polarization assay; assay type: binding; settings: deletion of BH2
# Bcl2 ΔBH3 = experiment: Fluorescence polarization assay; assay type: binding; settings: deletion of BH3
# Bcl2 ΔBH4 = Bcl2 ΔBH4 (Homo sapiens, UniProt P10415, DEL6-31); experiment: Fluorescence polarization assay; assay type: binding; settings: BH4 domain deficient Bcl2
# Bcl-XL = Bcl-XL (Homo sapiens, UniProt Q07817); experiment: Fluorescence polarization assay; assay type: binding
# Sequence of Bcl-XL (Q07817 whole entry, species assumed): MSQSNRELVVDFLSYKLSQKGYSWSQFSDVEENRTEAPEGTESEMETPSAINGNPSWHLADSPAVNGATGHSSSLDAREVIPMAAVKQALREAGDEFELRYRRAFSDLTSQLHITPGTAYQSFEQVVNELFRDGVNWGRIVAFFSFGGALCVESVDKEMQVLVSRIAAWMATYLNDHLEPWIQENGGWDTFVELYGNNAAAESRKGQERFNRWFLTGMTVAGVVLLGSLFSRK
# Mcl-1 = Mcl-1 (Homo sapiens, UniProt Q07820); experiment: Fluorescence polarization assay; assay type: binding
# Sequence of Mcl-1 (Q07820 whole entry, species assumed): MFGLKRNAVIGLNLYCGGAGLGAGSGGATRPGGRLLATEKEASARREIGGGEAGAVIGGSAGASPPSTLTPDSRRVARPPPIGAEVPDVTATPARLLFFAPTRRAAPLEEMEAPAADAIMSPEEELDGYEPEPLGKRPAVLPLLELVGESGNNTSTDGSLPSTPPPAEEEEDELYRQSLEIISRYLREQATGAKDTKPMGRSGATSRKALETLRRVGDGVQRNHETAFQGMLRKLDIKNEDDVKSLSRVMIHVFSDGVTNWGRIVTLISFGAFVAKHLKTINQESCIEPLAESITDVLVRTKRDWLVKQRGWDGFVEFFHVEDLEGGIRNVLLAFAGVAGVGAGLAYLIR
# Bfl-1/A1 = Bfl-1/A1 (Homo sapiens, UniProt Q16548); experiment: Fluorescence polarization assay; assay type: binding
# Sequence of Bfl-1/A1 (Q16548 whole entry): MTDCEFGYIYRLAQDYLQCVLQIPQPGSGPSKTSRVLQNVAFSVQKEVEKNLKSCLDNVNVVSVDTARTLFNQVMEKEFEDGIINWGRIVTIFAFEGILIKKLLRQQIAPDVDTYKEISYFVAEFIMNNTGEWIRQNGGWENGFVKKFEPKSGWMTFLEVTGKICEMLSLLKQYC
# Plasmid pUC19 DNA = experiment: Electrophoretic mobility shift assay; assay type: binding
# [8] = system: NSCLC and SCLC cell lines; experiment: Cell growth; assay type: cell-based, human
# [9] = system: normal small airway epithelial cell line (SAEC); experiment: Annexin-V/PI cell viability in normal cells; assay type: cell-based; settings: 1μM, 72 hr
# H1299 cells = experiment: Cell survival of H1299 cells overexpressing exogenous WT or mutant Bcl2; assay type: cell-based, human
# [10] = system: H460, H157, DMS53, DMS153 and H146 cells expressing Bcl2 shRNA; experiment: Apoptosis; assay type: cell-based, human; settings: 1μM, 72 hr; Bcl2 shRNA1, shRNA2 or shRNA3
# MEF cells = experiment: Apoptotic effect on WT and Bax knockout MEF cells; assay type: cell-based
# [11] = system: mitochondria isolated from H1299 cells; experiment: Cyt c release from isolated mitochondria; assay type: biochemical, human; settings: 1μM, 30 min, 30°C
# H460 cells [12] = experiment: Bcl2/IP3R interaction and Ca2+ release; assay type: cell-based, human; settings: increasing concentrations, 24h
# H460 cells [13] = experiment: Autophagy; assay type: cell-based, human
# [14] = Maximum tolerated dose, 12-day daily i.p. treatment; assay type: in vivo
# Single-dose MTD = assay type: in vivo
# SCLC PDX = experiment: Patient-derived xenograft; assay type: in vivo, Nu/Nu nude mice; settings: 20mg/kg/d i.p., 2 weeks
# [15] = exogenous AAAA Bcl2 mutant, 72 hr
# [16] = 10, 20, 30mg/kg/d i.p., 14 days
compound,measurement,setting,value
BAM7 [reference compound],direct Bax activation,purified recombinant Bax,can directly activate Bax
CC1(C)CCC(c2ccc(Cl)cc2)=C(CN2CCN(c3ccc(C(=O)NS(=O)(=O)c4ccc(N[C@H](CCN5CCOCC5)CSc5ccccc5)c(S(=O)(=O)C(F)(F)F)c4)cc3)CC2)C1 [ABT-263],thrombocytopenia,"[1]; ref Schoenwaelder et al., 2011",can induce thrombocytopenia
COc1cc([C@@H]2c3cc4c(cc3[C@@H](O[C@@H]3O[C@@H]5CO[C@@H](C)O[C@H]5[C@H](O)[C@H]3O)[C@H]3COC(=O)[C@H]23)OCO4)cc(OC)c1O [VP-16],Bcl2 conformational change (BH3 domain exposure),[2],not a chemotherapeutic agent (i.e. VP-16 or cisplatin) can directly induce Bcl2 conformational change
"CC1(C)CCC(CN2CCN(c3ccc(C(=O)NS(=O)(=O)c4ccc(NCC5CCOCC5)c([N+](=O)[O-])c4)c(Oc4cnc5[nH]ccc5c4)c3)CC2)=C(c2ccc(Cl)cc2)C1 [ABT-199, reference compound]",sensitivity of cells,[3]; [15],restored the sensitivity
same,sensitivity of cells,"[3]; exogenous WT Bcl2, 72 hr",restored sensitivity
same,thrombocytopenia,"[1]; in vivo, ref Souers et al., 2013",did not cause thrombocytopenia
CN(C)CC[C@H](CSc1ccccc1)Nc1ccc(S(=O)(=O)NC(=O)c2ccc(N3CCN(Cc4ccccc4-c4ccc(Cl)cc4)CC3)cc2)cc1[N+](=O)[O-] [ABT-737],thrombocytopenia,"[1]; ref Schoenwaelder et al., 2011",can induce thrombocytopenia
"CO[C@H]1C[C@@H]2CC[C@@H](C)[C@@](O)(O2)C(=O)C(=O)N2CCCC[C@H]2C(=O)O[C@H]([C@H](C)C[C@@H]2CC[C@@H](OCCO)[C@H](OC)C2)CC(=O)[C@H](C)/C=C(\C)[C@@H](O)[C@@H](OC)C(=O)[C@H](C)C[C@H](C)/C=C/C=C/C=C/1C [RAD001, everolimus]",cell growth inhibition,H460 cells [4]; 1nM,partially inhibited
same,Bcl2 expression,A549 cells,up-regulation of Bcl2 in a dose-dependent manner
same,Bcl2 expression,H460 cells [5],up-regulation of Bcl2 in a dose-dependent manner
same,Bcl2 expression in post-treatment vs baseline tumor tissues,Bcl2,increased expression of Bcl2
same,apoptosis in tumor tissues,"[6]; 1mg/kg/d, 14 days, alone",did not cause significant apoptosis
CCN(CC)C[C@@H](O)CNc1ccc(NC[C@H]2CO2)c2c1C(=O)c1ccccc1C2=O [BDA-366],Ki,Bcl2 (WT),3.3 ± 0.73 nM
same,Ki,D10A Bcl2 mutant,4.8 ± 0.41 nM
same,Ki,N11A Bcl2 mutant,4.1 ± 0.67 nM
same,Ki,R12A Bcl2 mutant,4.3 ± 0.54 nM
same,Ki,E13A Bcl2 mutant,4.5 ± 0.71 nM
same,Ki,M16A Bcl2 mutant,3.9 ± 0.31 nM
same,Ki,K17A Bcl2 mutant,4.2 ± 0.45 nM
same,Ki,H20A Bcl2 mutant,3.8 ± 0.47 nM
same,Ki,D31A Bcl2 mutant,3.7 ± 0.91 nM
same,Ki,[7],598.64 ± 0.12 nM
same,effect of domain deletion on binding,Bcl2 ΔBH1,did not significantly affect
same,effect of domain deletion on binding,Bcl2 ΔBH2,did not significantly affect
same,effect of domain deletion on binding,Bcl2 ΔBH3,did not significantly affect
same,binding,Bcl2 ΔBH4,failed to bind
same,binding,Bcl-XL,did not bind
same,binding,Mcl-1,did not bind
same,binding,Bfl-1/A1,did not bind
same,DNA binding (mobility shift),Plasmid pUC19 DNA,but not BDA-366 can bind to pUC19 DNA
same,Bcl2 conformational change (BH3 domain exposure),[2],enhanced the ability of the Bcl2/BH3 domain-specific antibody to bind Bcl2
same,direct Bax activation,purified recombinant Bax,is not a direct Bax activator
same,Bcl2-dependent Bax activation,"purified recombinant Bax; Bcl2 pre-treated with compound 1 hr, then Bax 2 hr",enhanced the ability of Bax to bind to 6A7 antibody
same,sensitivity of cell lines,"[8]; higher Bcl2: H157, Calu-1, H358, H460, H1975, DMS53, DMS153, H146, H69",more sensitive
same,sensitivity of cell lines,"[8]; lower or undetectable Bcl2: A549, H1299, DMS114, H128",less sensitive
same,sensitivity of normal cells,[9],less sensitive
same,cell survival,H1299 cells; compound Bcl2 AAAA mutant,significantly prolonged cell survival
same,sensitivity of cells,H1299 cells; exogenous WT or single site Bcl2 mutants,enhanced sensitivity
same,sensitivity after depletion of endogenous Bcl2,[10],significantly reduced sensitivity
same,sensitivity of cells,[3]; [15],not to BDA-366
same,sensitivity of cells,"[3]; exogenous WT Bcl2, 72 hr",restored sensitivity
same,sensitivity of Bax deficient vs WT MEF cells,MEF cells,significantly resistant
same,Cyt c release,[11]; WT Bcl2 mitochondria,induced Cyt c release
same,Cyt c release,[11]; ΔBH3 and vector-only control mitochondria,not from ΔBH3 and vector-only control cells
same,Bcl2/IP3R binding,H460 cells [12],reduced Bcl2/IP3R binding
same,Ca2+ release,H460 cells [12],increased Ca^2+ release
same,LC3-II levels,"H460 cells [13]; 1 μM, 24h",Increased levels of LC3-II
same,percentage of GFP-LC3vac cells,H460 cells [13]; vs DMSO control,significantly increases
same,time to death (uniformly lethal),[14]; 40mg/kg/d i.p.,≤ 8 days
same,time to death (uniformly lethal),[14]; 50mg/kg/d i.p.,up to 12 days
same,lethality,"[14]; 10 to 30mg/kg/d i.p., up to 12 days",no death
same,maximum therapeutic dose for continuous treatment,Single-dose MTD; 10% of single dose MTD,30~40 mg/kg
same,single dose MTD,"Single-dose MTD; mouse, in vivo",300 to 400 mg/kg
same,toxicity,Single-dose MTD; single dose 300mg/kg i.p.,did not cause weight loss or other toxicities
same,ALT and AST,Single-dose MTD; single dose 400mg/kg,significantly enhanced
same,pathological analysis of organs,Single-dose MTD; single dose 400mg/kg,microsteatosis in the liver and atrophic white pulp in the spleen
same,time to death,Single-dose MTD; single dose 400mg/kg,4 days
same,tumor growth,SCLC PDX,potently suppressed the growth
same,cell growth inhibition,H460 cells [4]; 100nM,partially inhibited
same,body weight,[6]; 30mg/kg,Slight weight loss
same,"apoptosis in tumor tissues (active caspase 3, TUNEL)",[6]; [16],dose-dependent apoptosis induction
same,tumor growth,[6]; [16],dose-dependent repression
same,histopathology of normal tissues,[6]; 10–30mg/kg/d,no evidence of normal tissue toxicities
same,Bcl2 BH3 domain exposure in tumor tissues (QD-IHF),[6]; 14 days,dose-dependent exposure of the Bcl2 BH3 domain
same,active Bax (6A7) in tumor tissues (QD-IHF),[6]; 14 days,increased level of 6A7 binding to Bax
same,kidney (BUN) and liver (ALT and AST) function,"[6]; up to 30mg/kg/d, 14 days",in the normal range
same,"neutrophils, lymphocytes, RBC and platelets in blood","[6]; up to 30mg/kg/d, 14 days",no decreases
"N.N.[Cl][Pt][Cl] [cisplatin, reference compound]",DNA binding (mobility shift),Plasmid pUC19 DNA,can bind to pUC19 DNA
same,Bcl2 conformational change (BH3 domain exposure),[2],not a chemotherapeutic agent (i.e. VP-16 or cisplatin) can directly induce Bcl2 conformational change

# — article PMC4470473 (Cancer cell, 2015)
